Assay results: patent US20190307843A1, “SINGLE DOSE METHODS FOR PREVENTING AND TREATING FUNGAL INFECTIONS” (Cidara Therapeutics, Inc., priority 2016, published 2019)
Where two headings read alike, the source gives them in different places. Starred links: 1 amine or outer side, 2 acyl side, 3 side chain; linkers in the order of their positions; H or OH if unused. Positions of bridges follow the written chain, without caps; N, C: chain ends. Non-standard residues stand in square brackets, D forms with d. Residues, ends and D or L forms follow the SMILES beside them. *: point of attachment. Orn(4R-OH,5R-OCH2CH2NMe3+) = C[N+](C)(C)CCO[C@@H](N[*:3])[C@H](O)C[C@H](N[*:1])C(=O)[*:2]; pTerphenylCO(4''-OnC5H11) = CCCCCOc1ccc(-c2ccc(-c3ccc(C(=O)*)cc3)cc2)cc1; hTyr(3S-OH,4S-OH) = N[C@H](C(=O)O)[C@H](O)[C@@H](O)c1ccc(O)cc1; Pro(3S-OH,4S-Me) = C[C@H]1CN[C@H](C(=O)O)[C@H]1O; Hyp = O=C(O)[C@@H]1C[C@@H](O)CN1

Legend:
C. glabrata = assay: In vitro susceptibility testing (CLSI M27-A3), C. glabrata; type: cell-based, Candida glabrata; settings: Nakaseomyces glabratus, 24 h
Description: (§1) Ten clinical Candida strains were used for the in vivo treatment studies, including four C. albicans, three C. glabrata, and three C. parapsilosis strains (Table 15). This group was selected to encompass phenotypic variability in susceptibility to triazoles and echinocandins and based on similar fitness in the animal model as defined by the amount of growth in control animals over 24 h. The organisms were maintained, grown, and quantified on Sabouraud's dextrose agar (SDA) plates.
(§2) In vitro susceptibility testing. All isolates were tested in accordance with the standards in CLSI document M27-A3. The MICs were determined visually after 24 h of incubation as the lowest concentration of drug that causes a significant diminution (50%) of growth compared to controls. MICs were determined on three separate occasions in duplicate.

[1] = Pharmacokinetic profile in female rats, 10 mg/kg IV and SC; settings: rat, in vivo
Text: The pharmacokinetic (PK) profile of CD101 in female rats (three per group) was characterized.

candidemia = assay: Human subject with candidemia, single intravenous dose (Example 2); type: in vivo; settings: single dose of 50-800 mg acetate salt of CD101, intravenous infusion
Description: A human subject is diagnosed with candidemia using standard diagnostic procedures. The subject receives treatment with a single dose of 50-800 mg (e.g., 75±25 mg, 100±25 mg, 150±50 mg, 200±50 mg, 250±50 mg, 300±50 mg, 350±50 mg, 400±50 mg, 450±50 mg, 500±100 mg, 600±100 mg, 700±100 mg, 800±100 mg, 900±50 mg, 1000 mg±100 mg, or 1100±100 mg) of the acetate salt of CD101 administered by intravenous infusion. No other antifungal treatment is provided to the subject within one to three weeks before or after administration of the single dose CD101 treatment.

C. albicans = assay: In vitro susceptibility testing (CLSI M27-A3), C. albicans; type: cell-based; settings: Candida albicans, 24 h
Description: as §1, §2

[2] = system: Candida albicans clinical isolates; settings: SENTRY, Pfaller, et al 2017; cited from earlier work
[3] = system: Candida albicans ATCC SC5314; assay: MIC used for free drug plasma concentration over MIC, candidiasis model; type: cell-based
Candida albicans (R357) = assay: Neutropenic mouse model of azole-resistant candidiasis, kidney CFU; type: in vivo; settings: CD101 3 mg/kg single IP dose, 72 hours
Pneumocystis spp. = assay: Murine model of Pneumocystis pneumonia; settings: in vivo
Text: The in vitro activity of CD101 was previously evaluated as part of the SENTRY international surveillance program using CLSI broth microdilution methodology (M38-A2, M27-A3; Pfaller, et al 2017). […] These susceptibility data were then compared graphically to CD101 plasma concentrations from studies in healthy adults, adjusted for plasma protein binding. Nonclinical efficacy in a murine model of Pneumocystis pneumonia were also considered to evaluate CD101 doses for clinical investigation of antifungal prophylaxis.

[4] = Pharmacokinetics of CD101 after single 30 mg/kg SC (vs IV) dose in monkeys; type: in vivo; settings: cynomolgus monkey, plasma; for half-life: 30 mg/kg
Description: Previous toxicology studies by the IV route of administration conducted in cynomolgus monkeys have shown CD101 to be safe and well tolerated at up to at least 30 mg/kg, which generates very high systemic exposures upon initial infusion of CD101 into the bloodstream. Therefore, only local tolerability (and PK) of CD101 by SC administration required evaluation. […] Plasma concentrations were then quantified by liquid chromatography with tandem mass spectrometric detection (LC-MS/MS). Bioavailability from SC dosing was calculated by comparing the calculated area under the concentration-time profile (AUC) from SC against the AUC from IV administration of the same dose.

[5] = both sexes, sc, Subcutaneous 30 mg/kg
[6] = female, animal 9707, F, 30 mg/kg SC
[7] = male, animal 9697, M, 30 mg/kg SC

With CCCCCOc1ccc(-c2ccc(-c3ccc(C(=O)N[C@H]4C[C@@H](O)[C@@H](OCC[N+](C)(C)C)NC(=O)[C@@H]5[C@@H](O)[C@@H](C)CN5C(=O)[C@H]([C@@H](C)O)NC(=O)[C@H]([C@H](O)[C@@H](O)c5ccc(O)cc5)NC(=O)[C@@H]5C[C@@H](O)CN5C(=O)[C@H]([C@@H](C)O)NC4=O)cc3)cc2)cc1 [CD101] ({pTerphenylCO(4''-OnC5H11)}-[Orn(4R-OH,5R-OCH2CH2NMe3+)]T[Hyp][hTyr(3S-OH,4S-OH)]T[Pro(3S-OH,4S-Me)]; lactam 1-C) the MIC (C. glabrata; C. glabrata 5592) was 0.125 µg/mL, the MIC (C. glabrata; C. glabrata 10956) was 1 µg/mL and the MIC (C. glabrata; C. glabrata 35315) was 0.5 µg/mL. It also gave a Tmax ([1]; SC administration) of 8 to 24 h, a half-life ([1]; SC, read-out: t½ (converted)) of 48 h and a bioavailability ([1]; sc) of 97%. For the same compound, the “candidemia infection at follow-up visit” value (candidemia) was “confirmed to be resolved”, the MIC (C. albicans; C. albicans 98-17) was 0.06 µg/mL and the MIC (C. albicans; C. albicans 98-210) was 0.03 µg/mL. For the same compound, the MIC (C. albicans; C. albicans 580) was 0.06 µg/mL, the MIC (C. albicans; C. albicans K-1, 50% growth diminution) was 0.06 µg/mL and the MIC90 [2] was 0.06 µg/mL. The MIC [3] was 0.03 µg/mL, the “reduction in C. albicans CFU compared with vehicle” value (Candida albicans (R357)) was > 3 log and the “human equivalent doses at which Pneumocystis pneumonia was prevented in mice” value (Pneumocystis spp.) was < 50 mg. It also gave a half-life [4, 5] of ~124 h, an AUC(0-t) [4, 5] of 2460 µg·h/mL and a Cmax [4, 5] of 13400 ng/mL. It also gave a Tmax [4, 5] of 72 h, an AUC(0-inf) ([4]; both sexes, sc, Subcutaneous 30 mg/kg, read-out: AUCinf) of 3520 µg·h/mL and a bioavailability ([4]; both sexes, subcutaneous, SC 30 mg/kg vs IV at the same dose, 10-day period) of 80%. For the same compound, the half-life ([4]; iv, IV 30 mg/kg) was 49.7 h, the AUC(0-t) ([4]; IV 30 mg/kg) was 3140 µg·h/mL and the Cmax ([4]; IV 30 mg/kg) was 112000 ng/mL. For the same compound, the Tmax ([4]; IV 30 mg/kg) was 1 h, the AUC(0-inf) ([4]; IV 30 mg/kg, read-out: AUCinf) was 3340 µg·h/mL and the half-life ([4]; female, sc, animal 9707, F, 30 mg/kg SC) was 171 h. The AUC(0-t) [4, 6] was 2180 µg·h/mL, the Cmax [4, 6] was 10900 ng/mL and the Tmax [4, 6] was 48 h. It also gave an AUC(0-inf) ([4]; female, animal 9707, F, 30 mg/kg SC, read-out: AUCINF_obs) of 3760 µg·h/mL, a half-life ([4]; male, sc, animal 9697, M, 30 mg/kg SC) of 76.2 h and an AUC(0-t) [4, 7] of 2740 µg·h/mL. The Cmax [4, 7] was 15900 ng/mL, the Tmax [4, 7] was 96 h and the AUC(0-inf) ([4]; male, animal 9697, M, 30 mg/kg SC, read-out: AUCINF_obs) was 3280 µg·h/mL.
